Laboratory results from ChEMBL document CHEMBL4130392, “Eugenol derived immunomodulatory molecules against visceral leishmaniasis” (Eur J Med Chem, 2017).
The source made the active and inactive calls. The rule behind the calls is not given here.

Assays:
[1] = Therapeutic index, ratio of EC50 for BALB/c mouse peritoneal macrophages to EC50 for Leishmania donovani MHOM/IN/AG/83 amastigotes; assay type: toxicity; details: read-out: Ratio EC50
[2] = tested on: Leishmania donovani; experiment: Antileishmanial activity against Leishmania donovani MHOM/IN/AG/83 amastigotes infected in BALB/c mouse peritoneal macrophages after 42 hrs by Giemsa staining-based microscopic analysis; assay type: functional, organism-based; details: MHOM/IN/AG/83, 42 h
[3] = tested on: Leishmania donovani; experiment: Antileishmanial activity against Leishmania donovani MHOM/IN/AG/83 promastigotes after 48 hrs by MTT assay; assay type: functional, organism-based; details: MHOM/IN/AG/83, 48 h
[4] = Drug uptake in mouse RAW264.7 cells assessed as ratio of drug level (cell lysate)/(drug level (supernatant) + drug level (cell lysate) at 10 ug/ml incubated for 3 hrs by HPLC method; assay type: ADME, cell-based; details: raw264.7, 3 h
[5] = Therapeutic index, ratio of IC50 for mouse RAW264.7 cells to IC50 for Leishmania donovani MHOM/IN/AG/83 promastigotes; assay type: toxicity; details: read-out: Ratio IC50
[6] = Drug uptake in mouse RAW264.7 cells assessed as retention time at 10 ug/ml incubated for 3 hrs by HPLC method; assay type: ADME, cell-based; details: raw264.7, 3 h
[7] = tested on: Peritoneal macrophage; experiment: Cytotoxicity against BALB/c mouse peritoneal macrophages after 48 hrs by MTT assay; assay type: cell-based
[8] = tested on: Peritoneal macrophage; experiment: Induction of NO generation in Leishmania donovani MHOM/IN/AG/83 infected BALB/c mouse peritoneal macrophages assessed as nitrite levels after 48 hrs by Griess assay relative to untreated control; assay type: functional
[9] = tested on: RAW264.7; experiment: Cytotoxicity against mouse RAW264.7 cells after 48 hrs by MTT assay; assay type: cell-based; details: RAW264.7, 48 h
[10] = organism: Mus musculus; experiment: Induction of innate immune response in splenocytes derived from compound treated BALB/c mouse infected with Leishmania donovani MHOM/IN/AG/83 assessed as increase in iNOS2 mRNA expression by RT-PCR analysis; assay type: functional
[11] = Ratio of therapeutic index of test compound to Miltefosine by measuring ratio of IC50 for BALB/c mouse peritoneal macrophages to IC50 for Leishmania donovani MHOM/IN/AG/83 amastigotes; assay type: toxicity
[12] = tested on: Peritoneal macrophage; experiment: Induction of NO generation in Leishmania donovani MHOM/IN/AG/83 infected BALB/c mouse peritoneal macrophages assessed as increase in nitrite levels at 1 ug/ml after 48 hrs by Griess assay relative to untreated control; assay type: functional
[13] = tested on: Leishmania donovani; experiment: (§1) Antileishmanial activity against Leishmania donovani MHOM/IN/AG/83 promastigotes infected in BALB/c mouse assessed as reduction of parasite burden in liver at 10 mg/kg, iv administered starting 2 weeks of post infection with five days interval between each treatment and measured after 28 days of treatment by Giemsa staining-based assay; assay type: functional; set-up: scale not given: the % may be the effect or the level left
[14] = organism: Mus musculus; experiment: Induction of innate immune response in splenocytes derived from compound treated BALB/c mouse infected with Leishmania donovani MHOM/IN/AG/83 by Griess assay; assay type: functional
[15] = organism: Mus musculus; experiment: Induction of innate immune response in splenocytes derived from compound treated BALB/c mouse infected with Leishmania donovani MHOM/IN/AG/83 assessed as reduction in arginase-1 activity using L-arginine by spectrometry relative to control; assay type: functional
[16] = organism: Mus musculus; experiment: Induction of innate immune response in splenocytes derived from compound treated BALB/c mouse infected with Leishmania donovani MHOM/IN/AG/83 assessed as downregulation of IL-10 protein expression by sandwich ELISA; assay type: functional, organism-based
[17] = Ratio of therapeutic index of test compound to Amphotericin B by measuring ratio of IC50 for BALB/c mouse peritoneal macrophages to IC50 for Leishmania donovani MHOM/IN/AG/83 amastigotes; assay type: toxicity
[18] = tested on: Peritoneal macrophage; experiment: Induction of innate immune response in Leishmania donovani MHOM/IN/AG/83 infected BALB/c mouse peritoneal macrophages assessed as upregulation of IL-12 mRNA expression at 2.5 ug/ml after 6 hrs by RT-PCR analysis; assay type: functional, cell-based
[19] = tested on: Peritoneal macrophage; experiment: Induction of innate immune response in Leishmania donovani MHOM/IN/AG/83 infected BALB/c mouse peritoneal macrophages assessed as increase in iNOS2 mRNA expression at 2.5 ug/ml incubated for 6 hrs by RT-PCR analysis relative to control; assay type: functional
[20] = tested on: Leishmania donovani; experiment: as §1, with “25” for “10”; assay type: functional; set-up: scale not given: the % may be the effect or the level left
[21] = tested on: Peritoneal macrophage; experiment: Induction of innate immune response in Leishmania donovani MHOM/IN/AG/83 infected BALB/c mouse peritoneal macrophages assessed as reduction in arginase 1 activity at 1 to 5 ug/ml incubated for 48 hrs using L-arginine and by spectrometry relative to control; assay type: functional
[22] = tested on: Peritoneal macrophage; experiment: Induction of innate immune response in Leishmania donovani MHOM/IN/AG/83 infected BALB/c mouse peritoneal macrophages assessed as upregulation of IL-12 levels at 2.5 ug/ml after 24 hrs by sandwich ELISA; assay type: functional
[23] = organism: Mus musculus; experiment: Induction of innate immune response in splenocytes derived from compound treated BALB/c mouse infected with Leishmania donovani MHOM/IN/AG/83 assessed as upregulation of IFNgamma mRNA expression levels by RT-PCR analysis; assay type: functional, organism-based
[24] = organism: Mus musculus; experiment: Induction of innate immune response in splenocytes derived from compound treated BALB/c mouse infected with Leishmania donovani MHOM/IN/AG/83 assessed as upregulation of IL-12 mRNA expression by RT-PCR analysis; assay type: functional, organism-based
[25] = organism: Mus musculus; experiment: Induction of innate immune response in splenocytes derived from compound treated BALB/c mouse infected with Leishmania donovani MHOM/IN/AG/83 assessed as upregulation of IL-12 protein expression by sandwich ELISA; assay type: functional, organism-based
[26] = tested on: Peritoneal macrophage; experiment: Induction of NO generation in Leishmania donovani MHOM/IN/AG/83 infected BALB/c mouse peritoneal macrophages assessed as increase in nitrite levels at 5 ug/ml after 48 hrs by Griess assay relative to untreated control; assay type: functional
[27] = tested on: Peritoneal macrophage; experiment: Induction of NO generation in Leishmania donovani MHOM/IN/AG/83 infected BALB/c mouse peritoneal macrophages assessed as increase in nitrite levels at 2.5 ug/ml after 48 hrs by Griess assay relative to untreated control; assay type: functional
[28] = tested on: Peritoneal macrophage; experiment: Induction of innate immune response in Leishmania donovani MHOM/IN/AG/83 infected BALB/c mouse peritoneal macrophages assessed as downregulation of IL-10 mRNA expression at 2.5 ug/ml after 6 hrs by RT-PCR analysis; assay type: functional, cell-based
[29] = organism: Mus musculus; experiment: Induction of innate immune response in splenocytes derived from compound treated BALB/c mouse infected with Leishmania donovani MHOM/IN/AG/83 assessed as reduction in arginase-1 expression by RT-PCR analysis relative to untreated control; assay type: functional
[30] = organism: Mus musculus; experiment: Induction of innate immune response in splenocytes derived from compound treated BALB/c mouse infected with Leishmania donovani MHOM/IN/AG/83 assessed as downregulation of IL-10 mRNA expression by RT-PCR analysis; assay type: functional, organism-based
[31] = organism: Mus musculus; experiment: Induction of innate immune response in splenocytes derived from compound treated BALB/c mouse infected with Leishmania donovani MHOM/IN/AG/83 assessed as upregulation of IFNgamma protein expression levels by sandwich ELISA; assay type: functional, organism-based
[32] = Binding affinity to plasma membrane of mouse RAW264.7 cells at 10 uM using compound with fluorophoric moiety attached via carbamate linkage by fluorescence microscopy; assay type: ADME, cell-based; details: raw264.7, 10 µM
[33] = tested on: Leishmania donovani; experiment: as §1, with “spleen” for “liver”; assay type: functional; set-up: scale not given: the % may be the effect or the level left
[34] = tested on: Leishmania donovani; experiment: as §1, with “spleen” for “liver”, “25” for “10”; assay type: functional; set-up: scale not given: the % may be the effect or the level left
[35] = tested on: Peritoneal macrophage; experiment: Induction of innate immune response in Leishmania donovani MHOM/IN/AG/83 infected BALB/c mouse peritoneal macrophage assessed as downregulation of IL-10 levels at 2.5 ug/ml after 24 hrs by sandwich ELISA; assay type: functional

C=CCc1ccc(OC(=O)COc2ccccc2)c(OC)c1
selectivity ratio [1]: 55.1
EC50 [2]: 7.17 µM
IC50 [3]: 28.9 µM
Ratio [4]: 0.73
selectivity ratio [5]: 13.7
Retention_time [6]: 3.867 min
EC50 [7]: 391 µM
Activity [8]: Dose-dependent effect
Activity ([8]; record 2): 39.02 µM
IC50 [9]: 396 µM

C=CCc1ccc(O)c(OC)c1 [EUGENOL]
selectivity ratio [1]: 2.75
EC50 [2]: 173 µM
IC50 [3]: 442 µM
Ratio [4]: 0.21
selectivity ratio [5]: 1.19
Retention_time [6]: 3.133 min
EC50 [7]: 476 µM
Activity [8]: Dose-dependent effect
Activity ([8]; record 2): 7.45 µM
IC50 [9]: 527 µM

C=CCc1ccc(OC(=O)CCCCCCCCCCCCCCCCC)c(OC)c1
fold change (FC) [10]: 8
selectivity ratio [1]: 82.2
EC50 [2]: 4.25 µM
Ratio [11]: 10 to 13
fold change (FC) [12]: 3
Activity [13]: 81%
IC50 [3]: 20.1 µM
fold change (FC) [14]: 8
fold change (FC) [15]: 4
Activity [16]: Active
Ratio [17]: 10 to 13
Activity [18]: Active
fold change (FC) [19]: 8
Activity [20]: 92%
fold change (FC) [21]: 4
fold change (FC) [22]: 5
Activity [23]: Active
Activity [24]: Active
Activity [25]: Active
Ratio [4]: 0.62
selectivity ratio [5]: 15.2
fold change (FC) [26]: 8
fold change (FC) [27]: 7
Activity [28]: Active
Retention_time [6]: 3.173 min
fold change (FC) [29]: 4
EC50 [7]: 346 µM
Activity [30]: Active
Activity [31]: Active
Activity [8]: Dose-dependent effect
Activity ([8]; record 2): 38.83 µM
Activity [32]: Active
Activity [33]: 72%
Activity [34]: 87%
IC50 [9]: 305 µM
fold change (FC) [35]: 3

C=CCc1ccc(OCC)c(OC)c1 [ETHYLEUGENOL]
selectivity ratio [1]: 0.55
EC50 [2]: 162 µM
IC50 [3]: 71.7 µM
selectivity ratio [5]: 1.43
EC50 [7]: 90.5 µM
Activity [8]: Dose-dependent effect
Activity ([8]; record 2): 10.43 µM
IC50 [9]: 102 µM

C=CCc1ccc(OCC=C(C)C)c(OC)c1
selectivity ratio [1]: 2.38
EC50 [2]: 157 µM
IC50 [3]: 242 µM
selectivity ratio [5]: 1.48
EC50 [7]: 372 µM
Activity [8]: Dose-dependent effect
Activity ([8]; record 2): 8.37 µM
IC50 [9]: 359 µM

C=CCc1ccc(OC(=O)c2ccc(F)cc2)c(OC)c1
selectivity ratio [1]: 5.24
EC50 [2]: 78.4 µM
IC50 [3]: 61.3 µM
selectivity ratio [5]: 5.93
EC50 [7]: 400 µM
Activity [8]: Dose-dependent effect
Activity ([8]; record 2): 14.56 µM
IC50 [9]: 364 µM

C=CCc1ccc(OC(=O)CCCCCCC)c(OC)c1
selectivity ratio [1]: 11
EC50 [2]: 53.3 µM
IC50 [3]: 68.3 µM
selectivity ratio [5]: 8.95
EC50 [7]: 565 µM
Activity [8]: Dose-dependent effect
Activity ([8]; record 2): 24.23 µM
IC50 [9]: 580 µM
